This is an account of results in ChEMBL document CHEMBL1138630, “Antioxidant activities of a new lignan and a neolignan from Saururus chinensis” (Bioorg Med Chem Lett, 2004).

In general, IC50 refers to the concentration that inhibits the measured activity by half. Low readings indicate higher potency, high ones lower potency.

Assay [1] deals with Cell line. Kind of assay: Effect of compound (0.1 uM) on macrophage-mediated oxidation of LDL was measured by MDA levels in the presence of Cu2+. It is filed as functional, Homo sapiens.
In assay [2] the test system is Cell line. Kind of assay: Concentration required for inhibition of Cu+2-induced peroxidation in low-density lipoprotein of human. Format: functional, cell-based.
Assay [3] concerns Cell line. Kind of assay: Antioxidant activity on copper-induced peroxidation in low-density lipoprotein at 10 uM; expressed as area of absorbance/mm. It is filed as functional, Homo sapiens.
The subject of assay [4] is Cell line. Kind of assay: Antioxidant activity on copper-induced peroxidation in low-density lipoprotein at 20 uM; expressed as area of absorbance/mm. Format: functional, Homo sapiens.
Assay [5] deals with Cell line. Kind of assay: Effect of compound (1 uM) on macrophage-mediated oxidation of LDL was measured by MDA levels in the presence of Cu2+. It is filed as functional, Homo sapiens.

As to `C/C=C/c1ccc(O[C@@H](C)[C@@H](O)c2ccc(O)c(OC)c2)c(OC)c1` [MACHILIN D], the Activity in assay [1] is 118.3 nmol/mg LDL; in assay [3], 5.81 AU/mm; in assay [4], 6.78 AU/mm. The same molecule registered an IC50 in assay [2] of 3.8 µM.

Turning to `COc1ccc(C[C@H](C)[C@@H](C)Cc2cc(OC)c(O)cc2O)cc1O`, the Activity was 358.9 nmol/mg LDL in assay [1], 6.45 AU/mm in assay [3] and 7.66 AU/mm in assay [4]. In assay [2], this molecule yielded an IC50 of 3.3 µM.

As for `CC(C)(Sc1cc(C(C)(C)C)c(O)c(C(C)(C)C)c1)Sc1cc(C(C)(C)C)c(O)c(C(C)(C)C)c1` [PROBUCOL], in assay [2], the IC50 was found to be 2.8 µM. The Activity in assay [3] is listed as 4.32 AU/mm; in assay [5], 412.6 nmol/mg LDL; in assay [4] it was 6.7 AU/mm.
